From US9751869B2, “LXR modulators” (BRISTOL-MYERS SQUIBB COMPANY, priority 2013, dated 2017)

Biological target: T1, LXRβ (Homo sapiens, UniProt P55055)
T1 construct: Co-transfection expression plasmids, comprising full-length LXRα (pCMX-h LXRα or LXRβ (pCMX-hLXRβ)); expressed in transfected cells; host or cells: CV-1 African green monkey kidney cells, transient transfection with pCMX-hLXRβ
T1 sequence (P55055 1-460): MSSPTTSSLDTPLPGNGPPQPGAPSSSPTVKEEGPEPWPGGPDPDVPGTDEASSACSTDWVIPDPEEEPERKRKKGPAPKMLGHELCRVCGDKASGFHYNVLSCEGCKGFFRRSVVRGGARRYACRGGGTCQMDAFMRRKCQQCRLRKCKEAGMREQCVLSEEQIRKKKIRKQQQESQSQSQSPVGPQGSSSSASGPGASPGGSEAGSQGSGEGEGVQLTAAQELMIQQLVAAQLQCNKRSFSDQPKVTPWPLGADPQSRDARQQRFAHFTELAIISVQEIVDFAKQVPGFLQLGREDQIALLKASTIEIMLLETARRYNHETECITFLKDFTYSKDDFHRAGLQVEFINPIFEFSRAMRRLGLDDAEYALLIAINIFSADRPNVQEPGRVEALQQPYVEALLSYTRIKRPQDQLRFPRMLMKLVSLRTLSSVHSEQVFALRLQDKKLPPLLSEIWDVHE
T1 sequence (P19793 1-462 partner): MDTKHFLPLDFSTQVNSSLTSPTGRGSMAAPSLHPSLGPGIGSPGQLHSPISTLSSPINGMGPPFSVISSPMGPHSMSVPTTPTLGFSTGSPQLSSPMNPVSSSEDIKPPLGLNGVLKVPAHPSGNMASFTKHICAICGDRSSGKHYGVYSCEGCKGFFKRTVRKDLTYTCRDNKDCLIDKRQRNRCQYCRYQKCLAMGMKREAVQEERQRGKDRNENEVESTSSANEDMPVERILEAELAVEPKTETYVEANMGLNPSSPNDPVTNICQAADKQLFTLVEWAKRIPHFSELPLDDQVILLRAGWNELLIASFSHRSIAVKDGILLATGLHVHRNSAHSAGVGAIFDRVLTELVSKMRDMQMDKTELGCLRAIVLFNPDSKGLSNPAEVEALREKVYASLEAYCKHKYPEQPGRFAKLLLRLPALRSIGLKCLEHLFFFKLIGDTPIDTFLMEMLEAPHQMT
Assay: LXR/LXRE co-transfection assay (luciferase reporter) in CV-1 cells, LXRβ
Assay type: cell-based
Conditions: for EC50: CV-1 cells transfected with pCMX-hLXRβ and LXREx1-Tk-Luciferase, 20 hours incubation, read-out: LXRbeta agonism EC50; for Emax: read-out: LXRbeta % EFFICACY
From the text: To measure the ability of compounds to activate or inhibit the transcriptional activity of LXR in a cell based assay, the co-transfection assay was used. It has been shown that LXR functions as a heterodimer with RXR. For the co-transfection assay, expression plasmids for LXRα and LXRβ are introduced separately via transient transfection into mammalian cells along with a luciferase reporter plasmid that contains one copy of a DNA sequence that is bound by LXR-RXR heterodimers (LXRE; Willy, P. et. al. 1995). LXRs heterodimerize with the endogenous RXR. Treatment of transfected cells with an LXR agonist increases the transcriptional activity of LXR, which is measured by an increase in luciferase activity.
Co-transfection expression plasmids, comprising full-length LXRα (pCMX-h LXRα or LXRβ (pCMX-hLXRβ), reporter plasmid (LXREx1-Tk-Luciferase), and control (pCMX-Galactosidase expression vector) (Willey et al. Genes & Development 9 1033-1045 (1995)).
CV-1 cells were prepared 24 hours prior to the experiment by plating them into T-175 flasks or 500 cm^2 dishes in order to achieve 70-80% confluency on the day of the transfection. The number of cells to be transfected was determined by the number of plates to be screened. Each well of a 384 well plate requires 1.5×10^4 cells. DNA Transfection Reagent was prepared by mixing the required plasmid DNAs with a cationic lipid transfection reagent Transit 2020 (Mirus Bio) for CV1 by following the instructions provided with the reagents. Optimal DNA amounts were determined empirically per cell line and size of vessel to be transfected. For each T175 cm^2 flask a total of 44.4 ug for CV1 of DNA, 133 ul Transit2020 and 4.5 ml DMEM for CV1 was mixed and added. Cells were then incubated at least 5 hours at 37° C. to prepare screening cells.
Assay plates were prepared by dispensing 5 μL of compound per well of a 384 well plate to achieve final compound concentration of 10 μM and no more than 0.5% DMSO. Media was removed from the screening cells, the cells trypsinized, harvested cells by centrifugation, counted, and plated at a density of approximately 1.5×10^4 cells in the 384 well assay plate prepared above in a volume of about 95 uL. Assay plates containing both compounds and screening cells (100 μL in total volume) were incubated for 20 hours at 37° C.
After incubation with compounds, media was removed from the cells and luciferase assay reagent (30 μL/well) added. After ˜2 minutes at ambient temperature, the assay plates were read on a luminometer (PE Biosystems Northstar reader with on-board injectors, or Envision (Perkin Elmer) or equivalent).
The LXR/LXRE co-transfection assay can be used to establish the EC50/IC50 values for potency and percent activity or inhibition for efficacy. Efficacy defines the activity of a compound relative to a high control ((N-(3-((4-fluorophenyl)-(naphthalene-2-sulfonyl)amino)propyl)-2,2-dimethylpropionamide)) or a low control (DMSO/vehicle). The dose response curves are generated from a 10 point curve with concentrations differing by ½ LOG units. Each point represents the average of 4 wells of data from a 384 well plate.
The data from this assay is fitted to the following equation, from which the EC50 value may be solved: Y=Bottom+(Top−Bottom)/(1+10^((log EC50-X)*HillSlope)).
The EC50/IC50 is therefore defined as the concentration at which an agonist or antagonist elicits a response that is halfway between the Top (maximum) and Bottom (baseline) values. The EC50/IC50 values represented are the averages of at least 2 and normally 3 independent experiments. The determination of the relative efficacy or % control for an agonist is by comparison to the maximum response achieved by ((N-(3-((4-fluorophenyl)-(naphthalene-2-sulfonyl)-amino)propyl)-2,2-dimethylpropionamide) that is measured individually in each dose response experiment.
Table 1 lists LXRβ EC50 values and % efficacy measurements in the cotransfection assay for examples of this invention.

[1] = CV-1 cells, relative to maximum response of high control N-(3-((4-fluorophenyl)-(naphthalene-2-sulfonyl)amino)propyl)-2,2-dimethylpropionamide

EC50 | Emax [1] | LXRbeta % EFFICACY [1] | Structure (SMILES)
264 nM | 55% | – | Cc1nc(-c2ccc(OC(F)(F)F)cc2)c(-c2cc(-c3cccc(S(C)(=O)=O)c3)ccc2-n2ccc(C(C)O)n2)o1 (single isomer, unassigned) [Example 367, 1-(1-(3-(2-methyl-4-(4-(trifluoromethoxy)phenyl)oxazol-5-yl)-3′-(methylsulfonyl)-[1,1′-biphenyl]-4-yl)-1H-pyrazol-3-yl)ethanol]
890 nM | – | 50% | Cc1nc(-c2ccc(OC(F)(F)F)cc2)c(-c2cc(-c3cccc(S(C)(=O)=O)c3)ccc2-n2ccc(C(C)O)n2)o1 (single isomer, unassigned) [Example 368, 1-(1-(3-(2-methyl-4-(4-(trifluoromethoxy)phenyl)oxazol-5-yl)-3′-(methylsulfonyl)-[1,1′-biphenyl]-4-yl)-1H-pyrazol-3-yl)ethanol]
783 nM | 68% | – | CC(O)C(F)(F)c1cc(-c2ccc(-c3cccc(S(C)(=O)=O)c3)cc2-n2nncc2-c2ccc(OC(F)(F)F)cc2)n(C)n1 (stereo not drawn) [Example 1, 1,1-difluoro-1-(1-methyl-5-(3′-(methylsulfonyl)-3-(5-(4-(trifluoromethoxy)phenyl)-1H-1,2,3-triazol-1-yl)biphenyl-4-yl)-1H-pyrazol-3-yl)propan-2-ol]
26 nM | 89% | – | CCC(F)(F)c1cc(-c2ccc(-c3cc(F)c(CO)c(S(C)(=O)=O)c3)cc2-n2nncc2-c2ccc(OC(F)(F)F)cc2)n(C)n1 [Example 2, (4′-(3-(1,1-difluoropropyl)-1-methyl-1H-pyrazol-5-yl)-3-fluoro-5-(methylsulfonyl)-3′-(5-(4-(trifluoromethoxy)phenyl)-1H-1,2,3-triazol-1-yl)biphenyl-4-yl)methanol]
245 nM | 73% | – | Cn1nc(C(F)(F)C(C)(C)O)cc1-c1ccc(-c2cc(F)c(CO)c(S(C)(=O)=O)c2)cc1-n1nncc1-c1ccc(OC(F)(F)F)cc1 [Example 3, 1,1-difluoro-1-(5-(3′-fluoro-4′-(hydroxymethyl)-5′-(methylsulfonyl)-3-(5-(4-(trifluoromethoxy)phenyl)-1H-1,2,3-triazol-1-yl)biphenyl-4-yl)-1-methyl-1H-pyrazol-3-yl)-2-methylpropan-2-ol]
1580 nM | 82% | – | Cn1nc(C(F)(F)C(N)=O)cc1-c1ccc(-c2cccc(S(C)(=O)=O)c2)cc1-n1nncc1-c1ccc(OC(F)(F)F)cc1 [Example 4, 2,2-difluoro-2-(1-methyl-5-(3′-(methylsulfonyl)-3-(5-(4-(trifluoromethoxy)phenyl)-1H-1,2,3-triazol-1-yl)biphenyl-4-yl)-1H-pyrazol-3-yl)acetamide]
12 nM | 109% | – | Cc1c(C(C)(F)F)nn(C)c1-c1ccc(-c2cc(F)c(CO)c(S(C)(=O)=O)c2)cc1-n1nncc1-c1ccc(OC(F)(F)F)cc1 [Example 5]
252 nM | 84% | – | CC(O)C(F)(F)c1cc(-c2ccc(-c3cc(F)c(CO)c(S(C)(=O)=O)c3)cc2-n2nncc2-c2ccc(OC(F)(F)F)cc2)n(C)n1 (stereo not drawn) [Example 6, 1,1-difluoro-1-(5-(3′-fluoro-4′-(hydroxymethyl)-5′-(methylsulfonyl)-3-(5-(4-(trifluoromethoxy)phenyl)-1H-1,2,3-triazol-1-yl)biphenyl-4-yl)-1-methyl-1H-pyrazol-3-yl)propan-2-ol]
377 nM | 66% | – | Cn1nc(C(F)(F)C(C)(C)O)cc1-c1ccc(-c2cccc(S(C)(=O)=O)c2)cc1-n1nncc1-c1ccc(OC(F)(F)F)cc1 [Example 7, 1,1-difluoro-2-methyl-1-(1-methyl-5-(3′-(methylsulfonyl)-3-(5-(4-(trifluoromethoxy)phenyl)-1H-1,2,3-triazol-1-yl)biphenyl-4-yl)-1H-pyrazol-3-yl)propan-2-ol]
2320 nM | 79% | – | Cn1nc(C(F)(F)C(N)=O)cc1-c1ccc(-c2cc(F)c(CO)c(S(C)(=O)=O)c2)cc1-n1nncc1-c1ccc(OC(F)(F)F)cc1 [Example 8, 2,2-difluoro-2-(5-(3′-fluoro-4′-(hydroxymethyl)-5′-(methylsulfonyl)-3-(5-(4-(trifluoromethoxy)phenyl)-1H-1,2,3-triazol-1-yl)biphenyl-4-yl)-1-methyl-1H-pyrazol-3-yl)acetamide]
70 nM | 82% | – | CCC(F)(F)c1cc(-c2ccc(-c3cccc(S(C)(=O)=O)c3)cc2-n2nncc2-c2ccc(OC(F)(F)F)cc2)n(C)n1 [Example 9, 1-(4-(3-(1,1-difluoropropyl)-1-methyl-1H-pyrazol-5-yl)-3′-(methylsulfonyl)biphenyl-3-yl)-5-(4-(trifluoromethoxy)phenyl)-1H-1,2,3-triazole]
31 nM | 104% | – | Cc1c(C(C)(F)F)nn(C)c1-c1ccc(-c2cccc(S(C)(=O)=O)c2)cc1-n1nncc1-c1ccc(OC(F)(F)F)cc1 [Example 10, 1-(4-(3-(1,1-difluoroethyl)-1,4-dimethyl-1H-pyrazol-5-yl)-3′-(methylsulfonyl)biphenyl-3-yl)-5-(4-(trifluoromethoxy)phenyl)-1H-1,2,3-triazole]
15 nM | 104% | – | Cc1c(C(C)(F)F)nn(C)c1-c1ccc(-c2ccc(CO)c(S(C)(=O)=O)c2)cc1-n1nncc1-c1ccc(OC(F)(F)F)cc1 [Example 11, (4′-(3-(1,1-difluoroethyl)-1,4-dimethyl-1H-pyrazol-5-yl)-3-(methylsulfonyl)-3′-(5-(4-(trifluoromethoxy)phenyl)-1H-1,2,3-triazol-1-yl)biphenyl-4-yl)methanol]
74 nM | 81% | – | Cn1nc(C(F)(F)F)cc1-c1ccc(-c2cccc(C(C)(C)C(N)=O)c2)cc1-n1nncc1-c1ccc(OC(F)(F)F)cc1 [Example 12]
45 nM | 83% | – | Cn1nc(C(F)(F)F)cc1-c1ccc(-c2cc(Cl)c(CO)c(S(C)(=O)=O)c2)cc1-n1nncc1-c1ccc(OC(F)(F)F)cc1 [Example 13]
